Experimental data published in US7482338B2 (priority 2003, dated 2009).
pKd: −log10 of the molar value.

Molecular target: α7 nAChR subtype (Rattus norvegicus, UniProt Q05941)
Assay type: binding
Conditions: read-out: KD of radioligand (saturation curve, one site model)

Chain of α7 nAChR subtype (Q05941 23-502 limits assumed): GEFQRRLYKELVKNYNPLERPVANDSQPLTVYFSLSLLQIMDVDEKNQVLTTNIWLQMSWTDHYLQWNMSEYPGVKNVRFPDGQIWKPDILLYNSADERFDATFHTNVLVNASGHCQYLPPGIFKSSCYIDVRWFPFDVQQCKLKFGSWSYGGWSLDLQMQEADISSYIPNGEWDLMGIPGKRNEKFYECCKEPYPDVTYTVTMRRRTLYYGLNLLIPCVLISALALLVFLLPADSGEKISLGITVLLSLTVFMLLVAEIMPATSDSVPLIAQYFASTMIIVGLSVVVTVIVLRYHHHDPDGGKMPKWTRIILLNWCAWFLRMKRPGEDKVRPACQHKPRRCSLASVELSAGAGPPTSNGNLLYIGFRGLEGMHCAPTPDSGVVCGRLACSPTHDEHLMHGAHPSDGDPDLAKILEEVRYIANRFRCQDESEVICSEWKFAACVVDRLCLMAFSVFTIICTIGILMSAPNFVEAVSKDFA

## [^125I]-α-Bungarotoxin [[^125I]-α-BTX]
  pKd: 8.78
